Reference: PubChem BioAssay (NCI)
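Protocol summary: plate cells (96-well), add compound at 5 concentrations, incubate 48 h, interpolate endpoints linearly. TGI marks complete inhibition of growth.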

Assays:
Test in all cases: NCI anticancer screen, dose series, 48 h
NCI-H522 lung = test system: NCI-H522 lung
MOLT-4 leukemia = test system: MOLT-4 leukemia
NCI/ADR-RES ovarian = test system: NCI/ADR-RES ovarian
SN12C renal = test system: SN12C renal
OVCAR-8 ovarian = test system: OVCAR-8 ovarian
NCI-H460 lung = test system: NCI-H460 lung
EKVX NSCLC = test system: EKVX NSCLC
OVCAR-4 ovarian = test system: OVCAR-4 ovarian
KM12 colon = test system: KM12 colon
PC-3 prostate = test system: PC-3 prostate
K-562 leukemia = test system: K-562 leukemia
LOX IMVI melanoma = test system: LOX IMVI melanoma
OVCAR-3 ovarian = test system: OVCAR-3 ovarian
OVCAR-5 ovarian = test system: OVCAR-5 ovarian
HOP-62 NSCLC = test system: HOP-62 NSCLC
MDA-MB-231 breast = test system: MDA-MB-231 breast
HS 578T breast = test system: HS 578T breast
SK-MEL-28 melanoma = test system: SK-MEL-28 melanoma
SF-268 CNS = test system: SF-268 CNS
HL-60(TB) leukemia = test system: HL-60(TB) leukemia

Structure (SMILES)	TGI (NCI-H522 lung) [µM]	TGI (MOLT-4 leukemia) [µM]	TGI (NCI/ADR-RES ovarian) [µM]	TGI (SN12C renal) [µM]	TGI (OVCAR-8 ovarian) [µM]	TGI (NCI-H460 lung) [µM]	TGI (EKVX NSCLC) [µM]	TGI (OVCAR-4 ovarian) [µM]	TGI (KM12 colon) [µM]	TGI (PC-3 prostate) [µM]	TGI (K-562 leukemia) [µM]	TGI (LOX IMVI melanoma) [µM]	TGI (OVCAR-3 ovarian) [µM]	TGI (OVCAR-5 ovarian) [µM]	TGI (HOP-62 NSCLC) [µM]	TGI (MDA-MB-231 breast) [µM]	TGI (HS 578T breast) [µM]	TGI (SK-MEL-28 melanoma) [µM]	TGI (SF-268 CNS) [µM]	TGI (HL-60(TB) leukemia) [µM]
CC1=C(C(=O)NNC(=O)c2ccccc2O)CC(C(=O)NNC(=O)c2ccccc2O)=C(C)N1	> 26.7	> 100	> 51.3	> 100	> 65.3	> 100	> 72.7	> 100	> 100	> 100	> 100	> 100	> 23.4	> 100	> 86.2	> 27.9	> 100	> 100	> 100	–
O=C(O)c1ccc(Nc2nc3ccc(C(F)(F)F)cc3nc2-c2ccccc2)cc1	> 100	> 100	96.2	> 100	> 100	> 100	> 100	–	> 10	> 100	> 100	> 100	72.6	> 100	> 100	–	> 100	> 100	> 100	66.3
O=C(O)CCC1(CCC(=O)O)CCCCCCCCC(CCC(=O)O)(CCC(=O)O)C(=O)C1=O	> 100	–	> 100	> 100	> 100	> 100	> 100	> 100	> 100	> 100	> 100	> 100	> 100	> 100	> 100	–	> 100	> 100	> 100	> 100
CC(C)(CN1CCCCC1)C(=O)CC(SCCS(=O)(=O)O)c1ccccc1 (stereo not given)	5.83	36.1	70.6	58.6	65	> 100	50.5	49.4	44.8	77.1	29.6	–	29.8	27	62.1	32.4	90.1	–	65.8	–
CC(C)(C)C1CCC2c3c([nH]c4ccccc34)C3C(=O)N(c4cc(Cl)ccc4Cl)C(=O)C3C2C1 (stereo not given)	–	> 100	> 100	> 100	> 100	> 100	> 100	–	–	> 100	> 100	> 100	> 100	> 100	> 100	> 100	> 100	–	–	–
CCOC(=O)C(CCSC)(CCSC)C(=O)OCC	> 100	> 100	> 100	> 100	> 100	> 100	> 100	> 100	> 100	> 100	> 100	> 100	> 100	> 100	> 100	> 100	> 100	> 100	> 100	–
CC(C)(Cl)C(Cl)CC/C(CBr)=C(\Cl)CBr (stereo not given)	3.09	2.32	7.9	6.15	3.92	8.21	30.1	2.9	6.08	8.56	–	0.72	6.81	5.19	4.91	4.42	4.54	4.38	7.67	–
O=C(O)c1ccccc1/C=N\N(CCO)C1=NCCN1	–	> 100	–	> 100	> 100	> 100	> 100	> 100	> 100	> 100	> 100	> 100	> 100	> 100	> 100	> 100	> 100	> 100	> 100	> 100
C=C1C(=O)O[C@H]2C1C[C@H](O)/C(C)=C/CC[C@@]1(C)O[C@H]21 (stereo not given in full)	3.43	–	33.7	33.8	37.6	–	40.3	30.2	30.1	–	> 100	23.5	–	33.9	91.5	38.4	75.2	38.7	74.5	–
c1cc2cc(Cc3ccc4[nH]ccc4c3)ccc2[nH]1	34.5	41	–	31.7	–	31.1	41.7	28.7	30.9	30.1	> 100	72.3	32.9	39.7	32.2	33.8	66.6	96.7	55.7	54.4
O=c1[nH]nc(-c2ccccc2)n1-n1cccc1	> 100	> 100	> 100	> 100	> 100	> 100	> 100	> 100	> 100	> 100	> 100	> 100	> 100	> 100	> 100	> 100	> 100	> 100	> 100	–
O=C(/C=C/c1ccc(Cl)cc1)c1nc2ccccc2[nH]1	> 100	–	> 100	> 100	> 100	> 100	83.3	71.3	13.3	> 100	30.7	32.6	49.1	> 100	50.1	> 100	> 100	> 100	> 100	–
CCCCCCc1cc2cc(-c3cn4ccccc4n3)c(=O)oc2cc1O	15.1	> 63.3	21.4	17.5	28.5	36.1	45.4	17.5	> 67.9	32.7	> 40.3	> 36.9	15.7	51.7	24.4	9.7	–	24.7	6.94	> 100
[O-][N+]1=C(c2ccccc2)/C(=C2/C(c3ccccc3)=[N+]([O-])c3ccccc32)Cc2ccccc21	30.5	54.3	34.4	32.4	35.6	–	48.5	38.9	33.9	34.9	58.1	34.5	38.1	> 100	> 100	33.5	–	46.2	–	> 100
COC1=C(OC)C(=O)C(C/C=C/c2c(Cl)nc3sccn23)=C(C)C1=O	33.2	8.97	29.6	31.7	24.2	38.6	25.1	13.9	44.4	31.6	68.3	12.1	29.9	38	32.1	25.3	54.6	33.7	38	–
COc1cccc(C2c3cc4c(cc3OC(NNC(N)=O)C2C)OCO4)c1OC (stereo not given)	61.5	66.8	–	> 100	17.9	68	> 100	–	62	55	88	45.6	50.2	> 100	57.5	81.6	45.9	72.7	> 100	57.4
CC(C)C1CCC(=O)CC1CCCCC1CC(=O)CC1O[Si](C)(C)C(C)(C)C (stereo not given)	4.02	5.5	21.2	22.3	13	> 100	36.1	29.3	7.93	43.1	> 34.9	9.28	> 47.5	26.2	33.7	40.5	9.89	19.7	7.74	–
CCN(CC)CCC(=O)Nc1ccc2sc3ccccc3c(=O)c2n1	30.4	> 100	72	77.8	62.4	61.6	> 100	> 100	32.1	40.9	41.4	38.9	43.2	42.5	37.8	–	46.1	33.6	48.5	30.9
Cc1ccc2nc(-c3nccn3C)cc(C(=O)NC(C)CN(C)C)c2c1 (stereo not given)	–	–	> 100	> 100	> 100	> 100	> 100	–	> 100	> 100	–	> 100	–	> 100	> 100	> 100	> 100	> 100	> 100	> 100
CC(=O)Oc1ccc(C)c2c1[C@H]1CC[C@]3(C)[C@@H](OC(C)=O)CC[C@H]3[C@@H]1CC2	34.1	46.5	40.4	39	58.3	37.4	30.9	–	35.1	–	68.3	31.4	33.1	> 100	32	33.9	47	33.2	80.3	51.5
